≈ marks a conversion by molar mass, not a printed value.
Target: α-glucosidase
Assay: pNPG hydrolysis, absorbance […] nm
Type: biochemical
Conditions: 1.25 mM pNPG, phosphate pH 6.8, 35 min preincubation at room temperature

CC(=O)NC(CC(=O)O)c1ccccc1O (stereo not shown) [L1, 3-Acetylamino-3(2-hydroxyphenyl) propanoic acid]
IC50 (μg mL^-1) / In vitro α-glucosidase inhibitory activity: 40.96 ± 0.96 µg/mL (≈ 183 µM)
